The target of the test is TRKA (Homo sapiens (Human), UniProt P04629). The test is described as follows: Isolated TRK enzyme assay (HTRF KinEASE-TK), TRKA. In kind it is biochemical. Particulars: read-out: Trka enzyme (IC50). (In general: Time-resolved FRET reads energy transfer from a long-lived donor to a nearby acceptor.)
Sequence of TRKA (P04629 441-796): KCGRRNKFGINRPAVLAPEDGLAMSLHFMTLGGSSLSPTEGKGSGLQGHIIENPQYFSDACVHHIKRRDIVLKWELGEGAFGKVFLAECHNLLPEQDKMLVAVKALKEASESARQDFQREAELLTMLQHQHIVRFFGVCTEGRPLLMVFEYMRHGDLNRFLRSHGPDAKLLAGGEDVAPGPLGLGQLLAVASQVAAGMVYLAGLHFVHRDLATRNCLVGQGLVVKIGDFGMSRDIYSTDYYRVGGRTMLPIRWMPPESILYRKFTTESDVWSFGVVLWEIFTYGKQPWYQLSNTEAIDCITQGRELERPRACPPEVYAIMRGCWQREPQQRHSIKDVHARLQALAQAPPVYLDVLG

One may read the IC50 as the midpoint of a concentration-inhibition curve. For `Cn1cc(C(=O)c2cncc(NC(=O)Cc3c(F)cccc3Cl)c2)c2cncnc21` [Example 180, 2-(2-chloro-6-fluorophenyl)-N-{5-[(7-methyl-7H-pyrrolo[2,3-d]pyrimidin-5-yl)carbonyl]pyridin-3-yl}acetamide], the 50% inhibitory concentration (IC50) was found to be 3100 nM.
`COc1ccc(CC(=O)Nc2cncc(C(=O)c3cn(C)c4ncncc34)c2)cc1` [Example 181, 2-(4-methoxyphenyl)-N-{5-[(7-methyl-7H-pyrrolo[2,3-d]pyrimidin-5-yl)carbonyl]pyridin-3-yl}acetamide]: the IC50 turned out to be 3100 nM.
Regarding `Cn1cc(C(=O)c2cncc(NC(=O)Cc3ccc(SC(F)(F)F)cc3)c2)c2cncnc21` [Example 182, N-{5-[(7-methyl-7H-pyrrolo[2,3-d]pyrimidin-5-yl)carbonyl]pyridin-3-yl}-2-{4-[(trifluoromethyl)thio]phenyl}acetamide], the IC50 amounted to 543 nM.
To `Cn1cc(C(=O)c2cncc(NC(=O)Cc3ccc(-c4ccccc4)cc3)c2)c2cncnc21` [Example 183, 2-biphenyl-4-yl-N-{5-[(7-methyl-7H-pyrrolo[2,3-d]pyrimidin-5-yl)carbonyl]pyridin-3-yl}acetamide] belongs 1850 nM.
Take `Cn1cc(C(=O)c2cncc(NC(=O)Cc3cc(F)c(F)cc3F)c2)c2cncnc21` [Example 184, N-{5-[(7-methyl-7H-pyrrolo[2,3-d]pyrimidin-5-yl)carbonyl]pyridin-3-yl}-2-(2,4,5-trifluorophenyl)acetamide]: the half-inhibitory concentration (IC50) came to 579 nM.
The value for `Cn1cc(C(=O)c2cncc(NC(=O)Cc3cccc(SC(F)(F)F)c3)c2)c2cncnc21` [Example 185, N-{5-[(7-methyl-7H-pyrrolo[2,3-d]pyrimidin-5-yl)carbonyl]pyridin-3-yl}-2-{3-[(trifluoromethyl)thio]phenyl}acetamide] was 67.4 nM; that for `Cc1ccc(CC(=O)Nc2cncc(C(=O)c3cn(C)c4ncncc34)c2)cc1` [Example 186, 2-(4-methylphenyl)-N-{5-[(7-methyl-7H-pyrrolo[2,3-d]pyrimidin-5-yl)carbonyl]pyridin-3-yl}acetamide] was 719 nM.
Turning to `Cn1cc(C(=O)c2cncc(NC(=O)Cc3cc(F)c(F)c(F)c3)c2)c2cncnc21` [Example 187, N-{5-[(7-methyl-7H-pyrrolo[2,3-d]pyrimidin-5-yl)carbonyl]pyridin-3-yl}-2-(3,4,5-trifluorophenyl)acetamide], the IC50 came out at 2630 nM.
Regarding `Cc1ccc(CC(=O)Nc2cncc(C(=O)c3cn(C)c4ncncc34)c2)c(C)c1` [Example 188, 2-(2,4-dimethylphenyl)-N-{5-[(7-methyl-7H-pyrrolo[2,3-d]pyrimidin-5-yl)carbonyl]pyridin-3-yl}acetamide], the IC50 amounted to 277 nM.
`Cn1cc(C(=O)c2cncc(NC(=O)Cc3ccc4c(c3)CCO4)c2)c2cncnc21` [Example 189, 2-(2,3-dihydro-1-benzofuran-5-yl)-N-{5-[(7-methyl-7H-pyrrolo[2,3-d]pyrimidin-5-yl)carbonyl]pyridin-3-yl}acetamide]: the half-inhibitory concentration (IC50) came to 836 nM.
The value for `Cn1cc(C(=O)c2cncc(NC(=O)Cc3cc(F)ccc3F)c2)c2cncnc21` [Example 190, 2-(2,5-difluorophenyl)-N-{5-[(7-methyl-7H-pyrrolo[2,3-d]pyrimidin-5-yl)carbonyl]pyridin-3-yl}acetamide] was 820 nM; that for `Cn1cc(C(=O)c2cncc(NC(=O)Cc3ccc(F)cc3F)c2)c2cncnc21` [Example 191, 2-(2,4-difluorophenyl)-N-{5-[(7-methyl-7H-pyrrolo[2,3-d]pyrimidin-5-yl)carbonyl]pyridin-3-yl}acetamide] was 873 nM.
`Cn1cc(C(=O)c2cncc(NC(=O)Cc3cccc(C(F)(F)F)c3F)c2)c2cncnc21` [Example 192, 2-[2-fluoro-3-(trifluoromethyl)phenyl]-N-{5-[(7-methyl-7H-pyrrolo[2,3-d]pyrimidin-5-yl)carbonyl]pyridin-3-yl}acetamide]: the IC50 stood at 173 nM.
Turning to `Cn1cc(C(=O)c2cncc(NC(=O)Cc3c(F)cccc3F)c2)c2cncnc21` [Example 193, 2-(2,6-difluorophenyl)-N-{5-[(7-methyl-7H-pyrrolo[2,3-d]pyrimidin-5-yl)carbonyl]pyridin-3-yl}acetamide], the IC50 turned out to be 3570 nM.
Turning to `Cn1cc(C(=O)c2cncc(NC(=O)Cc3cccc(C(F)(F)F)c3)c2)c2cncnc21` [Example 194, N-{5-[(7-methyl-7H-pyrrolo[2,3-d]pyrimidin-5-yl)carbonyl]pyridin-3-yl}-2-[3-(trifluoromethyl)phenyl]acetamide], the IC50 was determined as 101 nM.
The value for `Cn1cc(C(=O)c2cncc(NC(=O)Cc3ccc(F)c(F)c3)c2)c2cncnc21` [Example 195, 2-(3,4-difluorophenyl)-N-{5-[(7-methyl-7H-pyrrolo[2,3-d]pyrimidin-5-yl)carbonyl]yridine-3-yl}acetamide] was 835 nM.
For the compound `Cn1cc(C(=O)c2cncc(NC(=O)Cc3ccc(OC(F)(F)F)cc3)c2)c2cncnc21` [Example 196, N-{5-[(7-methyl-7H-pyrrolo[2,3-d]pyrimidin-5-yl)carbonyl]yridine-3-yl}-2-[4-(trifluoromethoxy)phenyl]acetamide], the half-maximal inhibitory concentration (IC50) is 791 nM.
The value for `Cn1cc(C(=O)c2cncc(NC(=O)Cc3cccc(Cl)c3)c2)c2cncnc21` [Example 197, 2-(3-chlorophenyl)-N-{5-[(7-methyl-7H-pyrrolo[2,3-d]pyrimidin-5-yl)carbonyl]yridine-3-yl}acetamide] was 430 nM; that for `Cn1cc(C(=O)c2cncc(NC(=O)CCc3ccccc3Cl)c2)c2cncnc21` [Example 198, 3-(2-chlorophenyl)-N-{5-[(7-methyl-7H-pyrrolo[2,3-d]pyrimidin-5-yl)carbonyl]pyridin-3-yl}propanamide] was 2350 nM.
`CC(C)(C)n1cc(C(=O)c2cncc(NC(=O)Cc3coc(C4CC4)n3)c2)c2cncnc21` [Example 199, N-{5-[(7-tert-butyl-7H-pyrrolo[2,3-d]pyrimidin-5-yl)carbonyl]pyridin-3-yl}-2-(2-cyclopropyl-1,3-oxazol-4-yl)acetamide]: the half-inhibitory concentration (IC50) is 22.1 nM.
The value for `CC(C)(C)n1cc(C(=O)c2cncc(NC(=O)Cc3cccc(S(C)(=O)=O)c3)c2)c2cncnc21` [Example 200, N-{5-[(7-tert-butyl-7H-pyrrolo[2,3-d]pyrimidin-5-yl)carbonyl]pyridin-3-yl}-2-[3-(methylsulfonyl)phenyl]acetamide] was 10.1 nM.
As for `Cc1nn(C)cc1CC(=O)Nc1cncc(C(=O)c2cn(C(C)(C)C)c3ncncc23)c1` [Example 201, N-{5-[(7-tert-butyl-7H-pyrrolo[2,3-d]pyrimidin-5-yl)carbonyl]pyridin-3-yl}-2-(1,3-dimethyl-1H-pyrazol-4-yl)acetamide], the IC50 amounted to 482 nM.
The value for `Cn1cc(CC(=O)Nc2cncc(C(=O)c3cn(C(C)(C)C)c4ncncc34)c2)cn1` [Example 202, N-{5-[(7-tert-butyl-7H-pyrrolo[2,3-d]pyrimidin-5-yl)carbonyl]pyridin-3-yl}-2-(1-methyl-1H-pyrazol-4-yl)acetamide] was 412 nM; that for `Cn1cc(CC(=O)Nc2cncc(C(=O)c3cn(C(C)(C)C)c4ncncc34)c2)c(C2CC2)n1` [Example 203, N-{5-[(7-tert-butyl-7H-pyrrolo[2,3-d]pyrimidin-5-yl)carbonyl]pyridin-3-yl}-2-(3-cyclopropyl-1-methyl-1H-pyrazol-4-yl)acetamide] was 316 nM; that for `C[C@@H](CO)n1cc(C(=O)c2cncc(NC(=O)Cc3cccc(C(F)(F)F)c3)c2)c2cncnc21` [Example 204, N-[5-({7-[(1S)-2-hydroxy-1-methylethyl]-7H-pyrrolo[2,3-d]pyrimidin-5-yl}carbonyl)pyridin-3-yl]-2-[3-(trifluoromethyl)phenyl]acetamide] was 4.24 nM.
On to `C[C@H](CO)n1cc(C(=O)c2cncc(NC(=O)Cc3cccc(C(F)(F)F)c3)c2)c2cncnc21` [Example 205, N-[5-({7-[(1R)-2-hydroxy-1-methylethyl]-7H-pyrrolo[2,3-d]pyrimidin-5-yl}carbonyl)pyridin-3-yl]-2-[3-(trifluoromethyl)phenyl]acetamide], for which the IC50 amounted to 12.2 nM.
Turning to `CC(C)c1cn(CC(=O)Nc2cncc(C(=O)c3cn([C@H](C)CO)c4ncncc34)c2)nn1` [Example 206, N-[5-({7-[(1R)-2-hydroxy-1-methylethyl]-7H-pyrrolo[2,3-d]pyrimidin-5-yl}carbonyl)pyridin-3-yl]-2-(4-isopropyl-1H-1,2,3-triazol-1-yl)acetamide], the IC50 was determined as 123 nM.
To `CC(C)n1ncc(CC(=O)Nc2cncc(C(=O)c3cn([C@H](C)CO)c4ncncc34)c2)c1C(F)(F)F` [Example 207, N-[5-({7-[(1R)-2-hydroxy-1-methylethyl]-7H-pyrrolo[2,3-d]pyrimidin-5-yl}carbonyl)pyridin-3-yl]-2-[1-isopropyl-5-(trifluoromethyl)-1H-pyrazol-4-yl]acetamide] belongs 110 nM.
Turning to `C[C@H](CO)n1cc(C(=O)c2cncc(NC(=O)Cc3ccc(C#N)cc3)c2)c2cncnc21` [Example 208, 2-(4-cyanophenyl)-N-[5-({7-[(1R)-2-hydroxy-1-methylethyl]-7H-pyrrolo[2,3-d]pyrimidin-5-yl}carbonyl)pyridin-3-yl]acetamide], the half-maximal inhibitory concentration (IC50) worked out at 129 nM.
Turning to `C[C@H](CO)n1cc(C(=O)c2cncc(NC(=O)Cc3cccc(S(C)(=O)=O)c3)c2)c2cncnc21` [Example 209, N-[5-({7-[(1R)-2-hydroxy-1-methylethyl]-7H-pyrrolo[2,3-d]pyrimidin-5-yl}carbonyl)pyridin-3-yl]-2-[3-(methylsulfonyl)phenyl]acetamide], the IC50 was determined as 272 nM.
To `C[C@H](CO)n1cc(C(=O)c2cncc(NC(=O)Cc3ccc4cccnc4c3)c2)c2cncnc21` [Example 210, N-[5-({7-[(1R)-2-hydroxy-1-methylethyl]-7H-pyrrolo[2,3-d]pyrimidin-5-yl}carbonyl)pyridin-3-yl]-2-quinolin-7-ylacetamide] belongs 185 nM.
To `O=C(Cc1ccc(Cl)c(Cl)c1)Nc1cncc(C(=O)c2cn(C3COC3)c3ncncc23)c1` [Example 217, 2-(3,4-dichlorophenyl)-N-{5-[(7-oxetan-3-yl-7H-pyrrolo[2,3-d]pyrimidin-5-yl)carbonyl]pyridin-3-yl}acetamide] belongs 83.3 nM.

(Values after patent publication US8846698B2, “Pyrrolo[2,3-d]pyrimidine tropomysin-related kinase inhibitors” (Pfizer Limited, priority 2011, dated 2014).)
